From article PMC8690038, “Mechanism of the feedback-inhibition resistance in aspartate kinase of Corynebacterium pekinense: from experiment to MD simulations” (RSC Advances, 2020)
Numbering of substitutions follows the chain as printed. Names may count otherwise.

T1: WT (Corynebacterium glutamicum, UniProt P26512)
T1 construct: gene lysC; recombinant from pET-28a-AK, His Trap purified, about 48 kDa
T1 sequence (P26512 1-421): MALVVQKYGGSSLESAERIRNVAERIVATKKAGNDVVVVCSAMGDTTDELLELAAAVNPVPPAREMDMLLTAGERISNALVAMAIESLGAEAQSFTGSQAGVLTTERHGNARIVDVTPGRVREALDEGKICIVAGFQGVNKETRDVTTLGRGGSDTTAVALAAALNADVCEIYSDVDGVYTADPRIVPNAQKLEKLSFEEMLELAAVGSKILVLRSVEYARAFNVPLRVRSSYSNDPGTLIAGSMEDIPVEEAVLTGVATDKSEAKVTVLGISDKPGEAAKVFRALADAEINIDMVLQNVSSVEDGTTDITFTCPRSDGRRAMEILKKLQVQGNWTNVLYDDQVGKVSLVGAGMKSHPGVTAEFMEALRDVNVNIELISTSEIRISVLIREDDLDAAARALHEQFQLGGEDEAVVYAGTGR

B1: WT (Corynebacterium glutamicum ATCC 13032) (protein)
chain: T1 sequence (P26512 1-421)
notes: recombinant from pET-28a-AK, His Trap purified, about 48 kDa
B2: A380C (Corynebacterium glutamicum ATCC 13032; A362C) (protein)
chain: T1 sequence (P26512 1-421) with A362C
notes: recombinant from pET-28a-AK in E. coli BL21, His Trap purified, about 48 kDa
B3: T379N/A380C (Corynebacterium glutamicum ATCC 13032; A362C/T361N) (protein)
chain: T1 sequence (P26512 1-421) with T361N, A362C
notes: as for B2

Assays:
CpAK mutant A380C [1] = target: T2, CpAK mutant A380C (Corynebacterium glutamicum, UniProt P26512, A362C); assay: Microscale thermophoresis (MST), A380C; type: binding, Corynebacterium pekinense
T2 construct: His-tag (pET-28a) (N); made in house; host or cells: E. coli BL21
T2 sequence (P26512 whole entry A362C): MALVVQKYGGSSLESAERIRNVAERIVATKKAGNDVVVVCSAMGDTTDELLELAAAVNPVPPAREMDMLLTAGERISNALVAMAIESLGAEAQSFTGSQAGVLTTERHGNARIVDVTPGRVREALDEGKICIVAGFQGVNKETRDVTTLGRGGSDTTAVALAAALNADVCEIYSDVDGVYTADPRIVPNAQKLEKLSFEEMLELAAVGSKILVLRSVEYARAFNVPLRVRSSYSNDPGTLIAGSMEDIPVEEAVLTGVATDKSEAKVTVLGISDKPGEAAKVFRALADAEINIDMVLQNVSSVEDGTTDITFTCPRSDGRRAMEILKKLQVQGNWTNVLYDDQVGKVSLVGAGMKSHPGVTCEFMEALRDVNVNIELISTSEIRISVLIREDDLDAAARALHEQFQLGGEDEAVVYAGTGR
Method: (§1) The purified AK concentration was adjusted to 2–20 μM with labeled buffer. The solid fluorescent dye (NT-647-NHS) was appended with 100% DMSO (30 μL) and dissolved thoroughly after vortex vibration. Then the dyes were adjusted to 2–3 folds of the protein concentration with the marker buffer. Protein and the solid fluorescent dye were mingled in equal proportion for dark reaction 30 min, and then purified according to the purification kit operation. The unlabeled substrate Asp and inhibitor Lys were diluted in the enzymatic activity measurement system, and the final concentration ranged from […], respectively, which they were incubated with the labeled protein (40 nM) at room temperature for 10 min. Then the samples were loaded into the Standard Capillaries from Nano Temper Technologies. Thermophoresis was measured 30 min after incubation at 28 °C on Monolith NT.115.[22] The dissociation constant (Kd) values were fitted by means of the MO. Affinity analysis software.

CpAK mutant T379N/A380C [2] = target: T3, CpAK mutant T379N/A380C (Corynebacterium glutamicum, UniProt P26512, A362C/T361N); assay: Microscale thermophoresis (MST), T379N/A380C; type: binding, Corynebacterium pekinense
T3 construct: His-tag (pET-28a) (N); made in house; host or cells: E. coli BL21
T3 sequence (P26512 whole entry T361N/A362C): as the sequence (P26512 whole entry A362C) above, with T361N counted along it
Method: as §1

CpAK mutant T379N/A380C [3] = target: T3, CpAK mutant T379N/A380C; assay: biochemical; parameters: species or system Corynebacterium pekinense; settings: read-out: Relative activity (%)
Method: (§2) The reaction was performed through adding 20 μL purified enzyme and 20 μL substrate inhibitors (Lys, Thr, Met, Lys + Thr, Lys + Met, Thr + Met, and Lys + Thr + Met) at 0.2, 1, 5, and 10 mM. The reaction was finished by adding volume FeCl3 after 30 min and the absorbance was measured at 540 nm. Water was instead of the substrate inhibitor as blank control. The enzyme activity of blank control was defined as 100%.

CpAK mutant A380C [4] = target: T2, CpAK mutant A380C; assay: biochemical; parameters: species or system Corynebacterium pekinense; settings: read-out: Relative activity (%)
Method: as §2

WT [5] = target: T1, WT; assay: Microscale thermophoresis of NT-647-NHS-labelled AK (40 nM) with diluted Lys in the enzyme activity measurement system, 28 °C, Monolith NT.115.; type: binding; settings: read-out: K d (mM) Lys
Method: as §1

WT (wild-type CpAK) = assay: Microscale thermophoresis (MST), WT; type: binding, Corynebacterium pekinense; settings: 28 °C
Method: as §1

WT [6] = target: T1, WT; assay: Microscale thermophoresis of NT-647-NHS-labelled AK (40 nM) with diluted Asp in the enzyme activity measurement system, 28 °C, Monolith NT.115, no Lys added.; type: binding; settings: read-out: K d (mM) Asp
Method: as §1

[7] = substrate: N[C@@H](CC(=O)O)C(=O)O; assay: Colorimetric end-point assay (FeCl3, 540 nm) with 0.5-16 mM L-Asp, 10.4 mM ATP, 1.6 mM MgSO4, 800 mM KCl, 800 mM NH4OH, 100 mM Tris-HCl pH 8.0, 28 °C, 30 min; fitted with the Hill equation.; type: biochemical
Method: The reaction system (1 mL) contained at the final concentration: 1.6 mM MgSO4, 800 mM KCl, 0.5–16 mM L-Asp, 10.4 mM ATP (dissoluted by 25 mM Tris–HCl), 100 mM Tris–HCl buffer solution (pH 8.0), 10 mM β-mercaptoethanol, and 800 mM NH4OH. The water was instead of L-Asp as blank control. The reaction was generated by adding 50 μL purified enzyme at 28 °C for 30 min, and stopped by adding FeCl3 solution (three parallel, below the same) and the absorbance were determined at 540 nm. The nonlinear curve was fitted by the Hill equation (V = Vmax (S^n)/(K^n + S^n)) using Origin 8.5 software. In the equation, the n value represents the Hill coefficient; the K value is equal to the substrate concentration at half the maximum rate of enzymatic reaction; Vmax and V indicate the maximum velocity and reaction rate, respectively; S means the substrate concentration.

Molecule	activity at 200 µM (CpAK mutant T379N/A380C [3]) [%]	activity at 1000 µM (CpAK mutant T379N/A380C [3]) [%]	activity at 5000 µM (CpAK mutant T379N/A380C [3]) [%]	activity at 10000 µM (CpAK mutant T379N/A380C [3]) [%]	activity at 200 µM (CpAK mutant A380C [4]) [%]	activity at 1000 µM (CpAK mutant A380C [4]) [%]	activity at 5000 µM (CpAK mutant A380C [4]) [%]	activity at 10000 µM (CpAK mutant A380C [4]) [%]	Km [7] [mM]	also measured
NCCCC[C@H](N)C(=O)O [Lys, lysine]	96.99 ± 0.56	98.8 ± 4.95	106.9 ± 0.56	116 ± 1.81	94.8 ± 0.97	95.7 ± 1.43	99.7 ± 0.54	104 ± 1.32	–	Kd (CpAK mutant A380C [1]): 5.32 ± 0.01 mM; Kd (CpAK mutant T379N/A380C [2]): 9.24 mM; Kd (WT [5]): 1.32 mM; Kd (WT (wild-type CpAK)): 1.32 mM
N[C@@H](CC(=O)O)C(=O)O [Asp, L-aspartic acid (L-Asp)]	–	–	–	–	–	–	–	–	–	Kd (WT [6]): 655.1 ± 0.9 mM
CSCC[C@H](N)C(=O)O [Met, methionine]	90.47 ± 0.12	96.33 ± 0.56	98.12 ± 0.44	99.47 ± 0.53	95.1 ± 1.69	97.71 ± 0.85	98.3 ± 2.6	98.1 ± 1.89	–	–
C[C@@H](O)[C@H](N)C(=O)O [Thr, threonine]	94.6 ± 3.26	97.06 ± 0.68	97.8 ± 1.95	98.12 ± 0.44	78.3 ± 1.19	80.9 ± 3.06	82.1 ± 3.56	87.8 ± 3.53	–	–
B1	–	–	–	–	–	–	–	–	4.17	–
B2	–	–	–	–	–	–	–	–	3.57	–
B3	–	–	–	–	–	–	–	–	2.89	–
